Test results taken from patent US11739098B2 (BRISTOL-MYERS SQUIBB COMPANY, priority 2017, dated 2023).

Key:
Type in all cases: cell-based
human TLR9 = molecular target: T1, human TLR9 (Homo sapiens, UniProt Q9NR96); experiment: TLR9 inhibition reporter assay (HEK-Blue cells, SEAP reporter, ODN2006 stimulation); conditions: HEK-Blue cells overexpressing human TLR9, SEAP reporter, ODN2006 5 nM
T1 construct: host or cells: HEK-Blue cells (HEK293-derived reporter line)
T1 sequence (Q9NR96 26-1032): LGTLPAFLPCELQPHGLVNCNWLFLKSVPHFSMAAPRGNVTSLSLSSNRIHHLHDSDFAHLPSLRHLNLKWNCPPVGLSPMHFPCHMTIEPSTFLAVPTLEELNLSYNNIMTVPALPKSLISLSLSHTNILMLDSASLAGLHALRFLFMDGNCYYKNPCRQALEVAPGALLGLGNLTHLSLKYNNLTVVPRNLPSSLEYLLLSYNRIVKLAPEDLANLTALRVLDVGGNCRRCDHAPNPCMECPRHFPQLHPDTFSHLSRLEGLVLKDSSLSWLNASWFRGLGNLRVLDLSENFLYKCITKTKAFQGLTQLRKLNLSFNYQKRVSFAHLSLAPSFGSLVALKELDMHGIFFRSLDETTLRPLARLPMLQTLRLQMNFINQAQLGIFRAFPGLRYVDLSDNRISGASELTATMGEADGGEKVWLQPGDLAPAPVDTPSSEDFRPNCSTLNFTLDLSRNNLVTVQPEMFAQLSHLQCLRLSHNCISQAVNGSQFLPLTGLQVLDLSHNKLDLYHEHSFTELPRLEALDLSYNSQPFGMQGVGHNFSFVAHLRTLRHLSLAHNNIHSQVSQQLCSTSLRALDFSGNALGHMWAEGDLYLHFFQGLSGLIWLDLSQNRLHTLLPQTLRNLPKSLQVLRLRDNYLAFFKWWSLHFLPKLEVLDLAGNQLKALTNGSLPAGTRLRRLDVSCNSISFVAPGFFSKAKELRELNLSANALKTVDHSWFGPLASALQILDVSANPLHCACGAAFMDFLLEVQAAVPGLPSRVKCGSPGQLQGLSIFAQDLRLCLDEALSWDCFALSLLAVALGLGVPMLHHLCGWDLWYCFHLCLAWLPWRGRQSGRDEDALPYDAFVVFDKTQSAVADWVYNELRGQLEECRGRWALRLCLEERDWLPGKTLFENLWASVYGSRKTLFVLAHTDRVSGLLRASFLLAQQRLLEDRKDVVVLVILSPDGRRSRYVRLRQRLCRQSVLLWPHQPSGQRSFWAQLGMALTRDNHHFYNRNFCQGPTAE
Procedure, shortened: (§1)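 After 22 h at 37 °C, SEAP secretion was measured from human TLR7-, TLR8- or TLR9-expressing HEK-Blue reporter cells given compound (0.05 nM–50 μM) 30 min before agonist: 7.5 μM gardiquimod, 15.9 μM R848 or 5 nM ODN2006 respectively. Percent inhibition referenced to agonist-plus-DMSO and known-inhibitor wells.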

human TLR7 = molecular target: T2, human TLR7 (Homo sapiens, UniProt Q9NYK1); experiment: TLR7 inhibition reporter assay (HEK-Blue cells, SEAP reporter, gardiquimod stimulation); conditions: HEK-Blue cells overexpressing human TLR7, SEAP reporter, gardiquimod 7.5 μM
T2 construct: host or cells: HEK-Blue cells (HEK293-derived reporter line)
T2 sequence (Q9NYK1 27-1049): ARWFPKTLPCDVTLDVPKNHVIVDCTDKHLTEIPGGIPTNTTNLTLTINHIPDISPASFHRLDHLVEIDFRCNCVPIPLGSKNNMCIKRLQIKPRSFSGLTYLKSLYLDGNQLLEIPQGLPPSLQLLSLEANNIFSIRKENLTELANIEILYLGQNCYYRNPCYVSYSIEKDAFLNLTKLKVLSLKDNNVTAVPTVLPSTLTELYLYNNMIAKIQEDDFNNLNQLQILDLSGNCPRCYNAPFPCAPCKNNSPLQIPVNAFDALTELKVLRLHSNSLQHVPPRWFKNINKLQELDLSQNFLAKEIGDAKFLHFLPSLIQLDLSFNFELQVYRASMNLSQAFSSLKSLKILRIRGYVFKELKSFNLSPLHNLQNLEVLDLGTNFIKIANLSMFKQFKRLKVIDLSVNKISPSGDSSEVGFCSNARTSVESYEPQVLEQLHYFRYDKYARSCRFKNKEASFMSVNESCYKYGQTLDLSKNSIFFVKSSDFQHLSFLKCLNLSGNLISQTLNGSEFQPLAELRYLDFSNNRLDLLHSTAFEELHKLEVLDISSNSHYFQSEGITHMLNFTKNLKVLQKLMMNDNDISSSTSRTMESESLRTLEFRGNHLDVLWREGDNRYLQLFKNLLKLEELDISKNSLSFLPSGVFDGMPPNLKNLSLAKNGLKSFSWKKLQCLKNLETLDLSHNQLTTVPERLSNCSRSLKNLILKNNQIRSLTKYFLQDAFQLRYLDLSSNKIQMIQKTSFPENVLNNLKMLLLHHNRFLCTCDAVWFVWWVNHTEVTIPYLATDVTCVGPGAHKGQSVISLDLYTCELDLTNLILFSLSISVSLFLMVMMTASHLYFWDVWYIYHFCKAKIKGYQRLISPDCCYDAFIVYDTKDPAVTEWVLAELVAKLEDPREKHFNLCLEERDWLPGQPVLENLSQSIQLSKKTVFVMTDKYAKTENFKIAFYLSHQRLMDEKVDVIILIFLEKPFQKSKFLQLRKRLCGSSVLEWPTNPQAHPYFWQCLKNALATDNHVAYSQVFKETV
Procedure, shortened: as §1

human TLR8 = molecular target: T3, human TLR8 (Homo sapiens, UniProt Q9NR97); experiment: TLR8 inhibition reporter assay (HEK-Blue cells, SEAP reporter, R848 stimulation); conditions: HEK-Blue cells overexpressing human TLR8, SEAP reporter, R848 15.9 μM
T3 construct: host or cells: HEK-Blue cells (HEK293-derived reporter line)
T3 sequence (Q9NR97 27-1041): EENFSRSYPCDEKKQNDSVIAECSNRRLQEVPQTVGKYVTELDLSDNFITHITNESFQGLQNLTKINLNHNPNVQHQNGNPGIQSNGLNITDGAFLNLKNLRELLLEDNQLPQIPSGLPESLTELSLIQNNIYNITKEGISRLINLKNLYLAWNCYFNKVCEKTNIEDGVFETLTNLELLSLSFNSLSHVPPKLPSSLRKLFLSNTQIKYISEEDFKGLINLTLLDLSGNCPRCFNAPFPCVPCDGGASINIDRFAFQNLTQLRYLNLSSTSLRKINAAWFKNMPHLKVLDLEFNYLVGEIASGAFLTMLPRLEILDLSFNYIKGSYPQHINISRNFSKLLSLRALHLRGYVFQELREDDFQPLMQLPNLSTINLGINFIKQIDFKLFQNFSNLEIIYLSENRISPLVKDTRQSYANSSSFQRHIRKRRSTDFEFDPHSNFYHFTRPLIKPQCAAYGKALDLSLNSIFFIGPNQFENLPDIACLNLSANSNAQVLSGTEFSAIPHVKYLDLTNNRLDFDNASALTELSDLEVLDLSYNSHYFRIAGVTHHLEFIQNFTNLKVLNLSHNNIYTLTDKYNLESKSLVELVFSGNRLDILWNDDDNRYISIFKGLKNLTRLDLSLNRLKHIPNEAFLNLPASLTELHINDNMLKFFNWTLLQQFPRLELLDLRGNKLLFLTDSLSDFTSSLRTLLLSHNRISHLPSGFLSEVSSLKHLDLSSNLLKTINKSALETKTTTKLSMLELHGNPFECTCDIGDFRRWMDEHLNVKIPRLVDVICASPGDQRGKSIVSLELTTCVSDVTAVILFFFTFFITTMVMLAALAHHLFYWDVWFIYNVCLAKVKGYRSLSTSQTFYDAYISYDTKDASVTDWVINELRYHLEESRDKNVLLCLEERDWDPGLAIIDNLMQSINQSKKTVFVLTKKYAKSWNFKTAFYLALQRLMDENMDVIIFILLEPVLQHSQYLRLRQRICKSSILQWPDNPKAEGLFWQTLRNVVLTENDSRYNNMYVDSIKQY
Procedure, shortened: as §1

| Compound | IC50 (human TLR9) | IC50 (human TLR7) | IC50 (human TLR8) |
| --- | --- | --- | --- |
| CC(C)c1c(-c2ccnc3c2CC(=O)N3)[nH]c2ccc(C3CCNCC3)cc12 [Example 69, 4-(3-isopropyl-5-(piperidin-4-yl)-1H-indol-2-yl)-1,3-dihydro-2H-pyrrolo[2,3-b]pyridin-2-one] | 100 to 1000 nM | 100 to 1000 nM | < 100 nM |
| CC(C)c1c(-c2ccc3[nH]c(=O)oc3c2)[nH]c2ccc(C3CCNCC3)cc12 [Example 10, 6-(3-isopropyl-5-(piperidin-4-yl)-1H-indol-2-yl)benzo[d]oxazol-2(3H)-one] | 100 to 1000 nM | < 100 nM | < 100 nM |
| Cc1cc(-c2[nH]c3ccc(C4CCNCC4)cc3c2C(C)C)c2[nH]ncc2n1 [Example 49, 7-(3-isopropyl-5-(piperidin-4-yl)-1H-indol-2-yl)-5-methyl-1H-pyrazolo[4,3-b]pyridine] | 1000 to 50000 nM | < 100 nM | < 100 nM |
| COc1cc(-c2[nH]c3ccc(C4CCNCC4)cc3c2C(C)C)cc2nc(C)cn12 [Example 162, 7-(3-isopropyl-5-(piperidin-4-yl)-1H-indol-2-yl)-5-methoxy-2-methylimidazo[1,2-a]pyridine] | 100 to 1000 nM | < 100 nM | 100 to 1000 nM |
| CC(C)c1c(-c2ccn3cnnc3c2)[nH]c2ccc(C3CCN(C4CCOCC4)CC3)cc12 [Example 697, 7-(3-isopropyl-5-(1-(tetrahydro-2H-pyran-4-yl)piperidin-4-yl)-1H-indol-2-yl)-[1,2,4]triazolo[4,3-a]pyridine] | 100 to 1000 nM | 100 to 1000 nM | 100 to 1000 nM |
| Cc1c(-c2ccnc3[nH]ccc23)[nH]c2ccc(C3CCN(C4CCN(C)CC4)CC3)cc12 [Example 810, 4-(3-methyl-5-(1′-methyl-[1,4′-bipiperidin]-4-yl)-1H-indol-2-yl)-1H-pyrrolo[2,3-b]pyridine] | 100 to 1000 nM | < 100 nM | < 100 nM |
| Cc1c(-c2[nH]c3ccc(C4CCNCC4)cc3c2C(C)C)cn2ccnc2c1C [Example 271, 6-(3-isopropyl-5-(piperidin-4-yl)-1H-indol-2-yl)-7,8-dimethylimidazo[1,2-a]pyridine] | 100 to 1000 nM | < 100 nM | < 100 nM |
| Cc1nc2c(-c3[nH]c4ccc(C5CCN(C(=O)C[C@H](C)O)CC5)cc4c3C(C)C)ccc(C)n2n1 [Example 598, (S)-1-(4-(2-(2,5-dimethyl-[1,2,4]triazolo[1,5-a]pyridin-8-yl)-3-isopropyl-1H-indol-5-yl)piperidin-1-yl)-3-hydroxybutan-1-one] | > 50000 nM | > 3130 nM | 1000 to 50000 nM |
| CC(C)c1c(-c2cn(C)c3ncccc23)[nH]c2ccc(C3CCN(C4CCS(=O)(=O)CC4)CC3)cc12 [Example 784, 4-(4-(3-isopropyl-2-(1-methyl-1H-pyrrolo[2,3-b]pyridin-3-yl)-1H-indol-5-yl)piperidin-1-yl)tetrahydro-2H-thiopyran 1,1-dioxide] | 1000 to 50000 nM | < 100 nM | < 100 nM |
| Cc1ncc(CN2CCC(c3ccc4[nH]c(-c5ccnc6[nH]ncc56)c(C(C)C)c4c3)CC2)[nH]1 [Example 869, 4-(3-isopropyl-5-(1-((2-methyl-1H-imidazol-5-yl)methyl)piperidin-4-yl)-1H-indol-2-yl)-1H-pyrazolo[3,4-b]pyridine] | 100 to 1000 nM | < 100 nM | < 100 nM |
| Cc1cc(-c2[nH]c3ccc(C4CCN(CC(=O)N(C)C)CC4)cc3c2C(C)C)cn2c(C#N)cnc12 [Example 430, 2-(4-(2-(3-cyano-8-methylimidazo [1,2-a]pyridin-6-yl)-3-isopropyl-1H-indol-5-yl)piperidin-1-yl)-N,N-dimethylacetamide] | 1000 to 50000 nM | 100 to 1000 nM | < 100 nM |
| CCc1c(-c2ccnc3[nH]cc(C)c23)[nH]c2ccc(C3CCNCC3)cc12 [Example 217, 4-(3-ethyl-5-(piperidin-4-yl)-1H-indol-2-yl)-3-methyl-1H-pyrrolo[2,3-b]pyridine] | 100 to 1000 nM | 100 to 1000 nM | 100 to 1000 nM |
| CC(C)c1c(-c2ncnn3cccc23)[nH]c2ccc(C3CCNCC3)cc12 [Example 191, 4-(3-isopropyl-5-(piperidin-4-yl)-1H-indol-2-yl)pyrrolo[2,1-f][1,2,4]triazine] | 100 to 1000 nM | 100 to 1000 nM | 100 to 1000 nM |
| CNC(=O)CN1CCC(c2ccc3[nH]c(-c4cc(C)c5nccn5c4)c(C(C)C)c3c2)CC1 [Example 397, 2-(4-(3-isopropyl-2-(8-methylimidazo[1,2-a]pyridin-6-yl)-1H-indol-5-yl)piperidin-1-yl)-N-methylacetamide] | 100 to 1000 nM | < 100 nM | < 100 nM |
| Cc1c(-c2ccnc3[nH]cc(N)c23)[nH]c2ccc(C3CCNCC3)cc12 [Example 211, 4-(3-methyl-5-(piperidin-4-yl)-1H-indol-2-yl)-1H-pyrrolo[2,3-b]pyridin-3-amine] | 1000 to 50000 nM | 1000 to 50000 nM | 1000 to 50000 nM |
